Results: PMC7150891, “Mertansine Inhibits mRNA Expression and Enzyme Activities of Cytochrome P450s and Uridine 5′-Diphospho-Glucuronosyltransferases in Human Hepatocytes and Liver Microsomes” (Pharmaceutics, 2020)
Like-named read-outs stand apart in the source and are kept apart here.

Legend:
CYP3A4 = system: CYP3A4
Procedure: (§1) Samples were incubated for 48 h at 37 °C in 5% CO2, and the medium was exchanged with 250 μL of fresh medium containing drugs or the vehicle every 24 h.
(§2) The effects of mertansine on CYP1A2, CYP2B6, and CYP3A4 activities were evaluated. […] Mixtures were vortexed for 2 min and then centrifuged at 13,000 g for 4 min at 4 °C. The supernatant (40 µL) was diluted with 60 µL of deionized water and then mixed for 2 min by vortexing. An aliquot (5 µL) was analyzed using LC-MS/MS [37], and CYP1A2, CYP2B6, and CYP3A4 enzyme activities were expressed as formation rates (pmol/million cells/min).
(§3) The percentage changes in enzymatic activities were calculated as (CYP activity with test compound treatment/CYP activity with vehicle control treatment) × 100. The IC50 (the concentration of the inhibitor needed for half-maximal inhibition) values were calculated using SigmaPlot ver. […] Ki (the inhibition constant) and the inhibition mode of UGT1A1, UGT1A3, and UGT1A4 activities were determined using Enzyme Kinetics ver. 1.1 (Systat Software, Inc.).

CYP1A2 = test: CYP1A2-catalyzed phenacetin O-deethylase activity in human hepatocytes after 48 h treatment
Procedure: as §1, §2, §3

CYP2C9 mRNA = CYP2C9 mRNA level in human hepatocytes after 48 h treatment (RT-PCR); details: plated cryopreserved human hepatocytes, IC50, suppression of CYP2C9 mRNA expression, 1.25–2500 nM
UGT1A4 mRNA = UGT1A4 mRNA level in human hepatocytes after 48 h treatment (RT-PCR); details: for IC50: read-out: IC50, suppression of UGT1A4 mRNA expression, 1.25–2500 nM
UGT1A9 mRNA = UGT1A9 mRNA level in human hepatocytes after 48 h treatment (RT-PCR); details: plated cryopreserved human hepatocytes, IC50, suppression of UGT1A9 mRNA expression, 1.25–2500 nM
CYP2C19 mRNA = CYP2C19 mRNA level in human hepatocytes after 48 h treatment (RT-PCR); details: plated cryopreserved human hepatocytes, IC50, suppression of CYP2C19 mRNA expression, 1.25–2500 nM
[1] = MTS colorimetric cytotoxicity assay in human hepatocytes; assay type: cell-based; details: human hepatocytes (lot 319), 48 h mertansine treatment (1.25–6250 nM), lot 319, MTS
Procedure: The hepatocytes were incubated with 0.0125, 0.0625, 0.125, 0.250, 0.625, 1.25, 2.5, and 6.25 μM mertansine in triplicate for 48 h at 37 °C in 5% CO2. The medium was exchanged with fresh medium containing mertansine every 24 h. Then, 20 μL of MTS solution was added to each well and the plate was incubated for 1 h at 37 °C in 5% CO2. The absorbance of the reaction mixture was measured at 492 nm.

[2] = mertansine 48 h, three human hepatocytes
[3] = Mean ± SD of three human hepatocyte lots, 48 h
[4] = human hepatocytes Lot 319, 48 h
[5] = human hepatocytes Lot 321, 48 h
[6] = human hepatocytes Lot 361, 48 h

## COc1cc2cc(c1Cl)N(C)C(=O)CC(OC(=O)C(C)N(C)C(=O)CCS)C1(C)OC1C(C)C1CC(O)(NC(=O)O1)C(OC)C=CC=C(C)C2 (stereo not drawn) [mertansine, Mertansine]
CYP3A4; human, hepatocytes
  Mean decrease of CYP3A4-mediated midazolam 1′-hydroxylase activity: 39.7%
CYP3A4; [2]
  Decrease of CYP3A4-mediated midazolam 1′-hydroxylase activity compared to vehicle: 30.8–62.7%
CYP1A2; highest concentration (2500 nM), 48 h, mean of three human hepatocytes
  Mean decrease of CYP1A2-mediated phenacetin O-deethylase activity: 48.3%
CYP1A2; [2]
  Decrease of CYP1A2-mediated phenacetin O-deethylase activity compared to vehicle: 27.8–79.0%
CYP2C9 mRNA; [3]
  IC50 at 48 h: 578 ± 452 nM
CYP2C9 mRNA; [4]
  IC50 at 48 h: 788 nM
CYP2C9 mRNA; [5]
  IC50 at 48 h: 888 nM
CYP2C9 mRNA; [6]
  IC50 at 48 h: 59.6 nM
UGT1A4 mRNA; human
  IC50 at 48 h: > 2500 nM
UGT1A4 mRNA; [4]
  IC50: > 2500 nM
UGT1A4 mRNA; [5]
  IC50: > 2500 nM
UGT1A4 mRNA; [6]
  IC50: > 2500 nM
UGT1A9 mRNA; [3]
  IC50 at 48 h: 54.1 ± 29.1 nM
UGT1A9 mRNA; [4]
  IC50 at 48 h: 86.9 nM
UGT1A9 mRNA; [5]
  IC50 at 48 h: 31.4 nM
UGT1A9 mRNA; [6]
  IC50 at 48 h: 44.1 nM
CYP2C19 mRNA; [3]
  IC50 at 48 h: 540 ± 233 nM
CYP2C19 mRNA; [4]
  IC50 at 48 h: 574 nM
CYP2C19 mRNA; [5]
  IC50 at 48 h: 754 nM
CYP2C19 mRNA; [6]
  IC50 at 48 h: 291 nM
[1]
  viability at 48 h: > 96.2%
